# Experimental data from PMC12163822, “Synthesis and Pharmacological Characterization of a Novel Cannabinoid Receptor 1 Antagonist” (ACS Omega, 2025).
# “Also recorded” adds a separate entry of the source.
# Key:
# human CB1 receptor [1] = target: T1, human CB1 receptor (Homo sapiens, UniProt P21554); assay: [3H]CP55,940 inhibition curves in membranes from CHO cells overexpressing human CB1; type: binding
# T1 construct: purchased Sigma-Aldrich; host or cells: CHO cells
# Method: Membrane homogenates from CHO cells overexpressing human CB1 and CB2 receptors, as well as matched wild-type cells, were used to test newly synthesized compounds and were acquired from Sigma-Aldrich (St Louis, MO, USA).
# To stop the reaction, an ice-cold wash buffer (50 mM Tris–HCl and 0.5% BSA, pH 7.4) was added. Then, the membranes were retained by vacuum filtration to a Whatman GF/C glass microfiber filter (Sigma-Aldrich, St. Louis, MO, USA) and the free radioligand was discarded. Filters with the bound radioligand were transferred to vials containing 5 mL of Ultima Gold cocktail (Revvity, Boston, MA, USA) and measured with a Packard Tri-Carb 2200CA liquid scintillation counter (Revvity, Boston, MA, USA).
# A concentration of 0.02 mg/mL of commercial WT (as control) and CB1 and CB2 overexpressing CHO cells were used, and the same protocol described above was followed. Rat spleen homogenates were also used at a concentration of 0.1 mg/mL as a further characterization of binding to the CB2 receptor, given the high expression of this receptor in this tissue and the practical lack of CB1 in it.
# CB1 receptor [2] = target: T2, CB1 receptor (Rattus norvegicus, UniProt P20272); assay: [3H]CP55,940 receptor autoradiography in rat brain slices; type: binding, Sprague-Dawley rat; parameters: fresh frozen sections from brain samples from wild-type; from tissue; host or cells: Sprague-Dawley rat brain sections; details: for [3H]CP55,940 binding: rat, 3 nM [3H]CP55,940 in the presence of compound 10 µM
# T2 sequence (P20272 whole entry): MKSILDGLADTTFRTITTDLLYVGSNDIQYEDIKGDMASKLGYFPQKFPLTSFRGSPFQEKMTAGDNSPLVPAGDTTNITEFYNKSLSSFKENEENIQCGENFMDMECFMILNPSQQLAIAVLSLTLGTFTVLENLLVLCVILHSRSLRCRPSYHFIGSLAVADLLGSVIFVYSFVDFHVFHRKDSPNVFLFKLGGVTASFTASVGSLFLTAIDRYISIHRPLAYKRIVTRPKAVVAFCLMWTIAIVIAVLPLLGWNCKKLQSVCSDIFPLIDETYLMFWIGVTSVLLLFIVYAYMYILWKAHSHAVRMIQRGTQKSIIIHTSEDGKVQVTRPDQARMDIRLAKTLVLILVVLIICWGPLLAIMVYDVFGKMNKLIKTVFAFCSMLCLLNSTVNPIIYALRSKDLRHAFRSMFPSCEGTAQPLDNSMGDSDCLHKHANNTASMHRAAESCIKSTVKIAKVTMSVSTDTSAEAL
# Method: (§1) All brain sections were air-dried for 30 min and later immersed in Coplin jars for preincubation in a buffer containing 50 mM Tris–HCl and 1% of BSA (pH 7.4) for 30 min at room temperature. The objective of this preincubation was to remove endogenous ligands. […] Following incubation, tissue slices were washed with an ice-cold preincubation buffer, dipped in distilled water, and dried overnight. To generate autoradiograms, dry sections were placed in hermetically closed cassettes and exposed to β-radiation-sensitive films for 21 days at 4 °C. To calibrate the optical densities to fmol/mg tissue equivalent, [^3H]-microscales were exposed to the films. To quantify the calibrated films after scanning, Fiji software (Bethesda, […], USA) was used.
# CB1 receptor [3] = target: T3, CB1 receptor (Mus musculus, UniProt P47746); assay: [3H]CP55,940 receptor autoradiography in mouse brain slices; type: binding, Swiss mice; details: for [3H]CP55,940 binding: mouse, 3 nM [3H]CP55,940 in the presence of compound 10 µM
# T3 construct: fresh frozen sections from brain samples from wild-type; from tissue; host or cells: Swiss mouse brain sections
# T3 sequence (P47746 whole entry): as the sequence (P20272 whole entry) above, with E95D counted along it
# Method: as §1
# CB1 receptor [4] = target: T3, CB1 receptor; assay: Functional [35S]GTPγS autoradiography in mouse brain slices; type: biochemical, Swiss mice; details: for [35S]GTPγS binding, Stimulation (% over basal), CP55,940 + UVI3502 / [35S]GTPγS binding, Stimulation (% over basal): mouse; for [35S]GTPγS binding, Stimulation (% over basal), CP55,940 + UVI3502: CP55,940 and UVI3502 both at 10 µM; for [35S]GTPγS binding, Stimulation (% over basal): compound alone 10 µM
# Method: (§2) All brain sections were air-dried for 30 min and then immersed in Coplin jars for preincubation (4 times, 15 min each time) in an HEPES-based buffer (50 mM HEPES, 100 mM NaCl, 3 mM MgCl2, 0.2 mM EGTA, 0.5% BSA; pH 7.4) at 30 °C. The objective of this preincubation was the removal of endogenous ligands. […] Basal [^35S]-GTPγS binding was defined in the absence of the agonists in two consecutive slices. To define nonspecific binding, 10 μM of unlabeled GTPγS was added to the incubation in another section. Following incubation, slices were twice washed in an ice-cold 50 mM HEPES buffer (pH 7.4), dried, and exposed for 48 h to β-radiation sensitive film with a set of [^14C] standards calibrated for [^35S]. Calibrated films were scanned and quantified using Fiji software (Fiji, Bethesda, […], USA). The signal corresponding to nonspecific binding was previously subtracted from the basal and agonist-stimulated binding. Then, the data was expressed as the percentage of stimulation over basal following the formula: ([^35S]-GTPγS agonist-stimulated binding) × 100/([^35S]-GTPγS basal binding)-100.
# CB1 receptor [5] = target: T2, CB1 receptor; assay: Functional [35S]GTPγS autoradiography in rat brain slices; type: biochemical, Sprague-Dawley rat; parameters: fresh frozen sections from brain samples from wild-type; from tissue; host or cells: Sprague-Dawley rat brain sections; details: for [35S]GTPγS binding, Stimulation (% over basal), CP55,940 + UVI3502 / [35S]GTPγS binding, Stimulation (% over basal): rat; for [35S]GTPγS binding, Stimulation (% over basal), CP55,940 + UVI3502: CP55,940 and UVI3502 both at 10 µM; for [35S]GTPγS binding, Stimulation (% over basal): compound alone 10 µM
# Method: as §2
# human CB1 receptor [6] = target: T1, human CB1 receptor; assay: [35S]GTPγS functional binding assay in CHO cells overexpressing human CB1; type: biochemical; details: CB1 overexpressing CHO membranes, result in words
# Method: The compound with the best affinity was also tested using functional [^35S]-GTPγS binding assays to characterize its activity as an agonist or antagonist/inverse agonist. A protein concentration of 0.1 mg/mL of rat cortex homogenates and a protein concentration of 0.02 mg/mL of commercial CB1 overexpressing CHO cells were used for these assays, suspended in a reaction buffer (Tris–HCl 50 mM, EGTA 1 mM, MgCl2 3 mM, NaCl 100 mM, 0.5% BSA; pH 7.4). The target compound was used in concentrations ranging from 10^–11 to 10^–4 M and incubated for 2 h at 37 °C with agitation in the presence of 0.5 nM [^35S]-GTPγS and 50 μM GDP. Basal coupling of [^35S]-GTPγS to Gi/o proteins was determined by incubating the membrane aliquots with the radioligand in the absence of the target compound. To define nonspecific binding, 10 μM of unlabeled GTPγS was added to the incubation.
# [7] = rat brain slices, 10 µM, result in words
# [8] = nucleus basalis magnocellularis
# [9] = mouse brain slices, 10 µM, result in words
# T1 sequence (P21554 whole entry): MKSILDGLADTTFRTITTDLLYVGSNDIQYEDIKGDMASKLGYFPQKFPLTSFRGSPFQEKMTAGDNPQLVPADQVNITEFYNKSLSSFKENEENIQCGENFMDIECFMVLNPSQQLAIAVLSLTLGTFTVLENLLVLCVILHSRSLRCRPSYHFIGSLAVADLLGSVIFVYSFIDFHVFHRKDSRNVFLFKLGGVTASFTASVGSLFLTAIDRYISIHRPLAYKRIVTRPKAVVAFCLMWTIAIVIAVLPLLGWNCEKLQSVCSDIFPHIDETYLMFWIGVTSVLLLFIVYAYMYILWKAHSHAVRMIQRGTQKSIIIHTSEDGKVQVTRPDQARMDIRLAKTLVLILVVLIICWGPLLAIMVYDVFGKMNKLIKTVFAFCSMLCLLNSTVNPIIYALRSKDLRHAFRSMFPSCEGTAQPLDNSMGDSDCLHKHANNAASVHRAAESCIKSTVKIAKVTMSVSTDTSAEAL
structure (smiles),measurement,setting,value
CCOC(=O)/C=C1\C(=O)Nc2ccc(C)cc2-c2c1c1cc(OC)ccc1n2C(=O)OCC [UVI3502],IC50,human CB1 receptor [1],4.64 ± 1.6 µM
same,"total inhibition of [3H]CP55,940 binding",human CB1 receptor [1]; CB1 overexpressing CHO membranes,approximately 38%
same,"inhibition of [3H]CP55,940 binding in brain areas",CB1 receptor [2]; [7],partially inhibit
same,"[3H]CP55,940 binding",CB1 receptor [2]; amygdala,136 ± 52 fmol/mg t.e.
same,"[3H]CP55,940 binding",CB1 receptor [2]; cerebellum (gray matter),421 ± 126 fmol/mg t.e.
same,"[3H]CP55,940 binding",CB1 receptor [2]; cortex,122 ± 25 fmol/mg t.e.
same,"[3H]CP55,940 binding",CB1 receptor [2]; globus pallidus,572 ± 40 fmol/mg t.e.
same,"[3H]CP55,940 binding",CB1 receptor [2]; hippocampus dorsal,184 ± 26 fmol/mg t.e.
same,"[3H]CP55,940 binding",CB1 receptor [2]; [8],147 ± 18 fmol/mg t.e.
same,"[3H]CP55,940 binding",CB1 receptor [2]; striatum,291 ± 18 fmol/mg t.e.
same,"[3H]CP55,940 binding",CB1 receptor [2]; substantia nigra,1364 ± 581 fmol/mg t.e.
same,"inhibition of [3H]CP55,940 binding in brain areas",CB1 receptor [3]; [9],partially inhibit
same,"[3H]CP55,940 binding",CB1 receptor [3]; amygdala,154 ± 8 fmol/mg t.e.
same,"[3H]CP55,940 binding",CB1 receptor [3]; cerebellum (gray matter),409 ± 207 fmol/mg t.e.
same,"[3H]CP55,940 binding",CB1 receptor [3]; cortex,118 ± 18 fmol/mg t.e.
same,"[3H]CP55,940 binding",CB1 receptor [3]; globus pallidus,698 ± 16 fmol/mg t.e.
same,"[3H]CP55,940 binding",CB1 receptor [3]; hippocampus dorsal,181 ± 9 fmol/mg t.e.
same,"[3H]CP55,940 binding",CB1 receptor [3]; [8],202 ± 19 fmol/mg t.e.
same,"[3H]CP55,940 binding",CB1 receptor [3]; striatum,159 ± 11 fmol/mg t.e.
same,"[3H]CP55,940 binding",CB1 receptor [3]; substantia nigra,1075 ± 22 fmol/mg t.e.
same,"activity on CP55,940-evoked [35S]GTPγS stimulation",CB1 receptor [4]; [9],acts as an antagonist
same,"[35S]GTPγS binding, Stimulation (% over basal), CP55,940 + UVI3502",CB1 receptor [4]; amygdala,0 ± 78 % over basal
same,"[35S]GTPγS binding, Stimulation (% over basal)",CB1 receptor [4]; amygdala,-16 ± 51 % over basal
same,"[35S]GTPγS binding, Stimulation (% over basal), CP55,940 + UVI3502",CB1 receptor [4]; cerebellum (gray matter),6 ± 23 % over basal
same,"[35S]GTPγS binding, Stimulation (% over basal)",CB1 receptor [4]; cerebellum (gray matter),-43 ± 9 % over basal
same,"[35S]GTPγS binding, Stimulation (% over basal), CP55,940 + UVI3502",CB1 receptor [4]; cortex,-51 ± 11 % over basal
same,"[35S]GTPγS binding, Stimulation (% over basal)",CB1 receptor [4]; cortex,-55 ± 9 % over basal
same,"[35S]GTPγS binding, Stimulation (% over basal), CP55,940 + UVI3502",CB1 receptor [4]; globus pallidus,91 ± 104 % over basal
same,"[35S]GTPγS binding, Stimulation (% over basal)",CB1 receptor [4]; globus pallidus,-46 ± 29 % over basal
same,"[35S]GTPγS binding, Stimulation (% over basal), CP55,940 + UVI3502",CB1 receptor [4]; hippocampus dorsal,-36 ± 8 % over basal
same,"[35S]GTPγS binding, Stimulation (% over basal)",CB1 receptor [4]; hippocampus dorsal,-38 ± 12 % over basal
same,"[35S]GTPγS binding, Stimulation (% over basal), CP55,940 + UVI3502",CB1 receptor [4]; [8],-30 ± 37 % over basal
same,"[35S]GTPγS binding, Stimulation (% over basal)",CB1 receptor [4]; [8],-20 ± 65 % over basal
same,"[35S]GTPγS binding, Stimulation (% over basal), CP55,940 + UVI3502",CB1 receptor [4]; striatum,-52 ± 13 % over basal
same,"[35S]GTPγS binding, Stimulation (% over basal)",CB1 receptor [4]; striatum,-52 ± 18 % over basal
same,"[35S]GTPγS binding, Stimulation (% over basal), CP55,940 + UVI3502",CB1 receptor [4]; substantia nigra,181 ± 128 % over basal
same,"[35S]GTPγS binding, Stimulation (% over basal)",CB1 receptor [4]; substantia nigra,-58 ± 11 % over basal
same,"activity on CP55,940-evoked [35S]GTPγS stimulation",CB1 receptor [5]; [7],acts as an antagonist
same,"[35S]GTPγS binding, Stimulation (% over basal), CP55,940 + UVI3502",CB1 receptor [5]; amygdala,-47 ± 30 % over basal
same,"[35S]GTPγS binding, Stimulation (% over basal)",CB1 receptor [5]; amygdala,-35 ± 19 % over basal
same,"[35S]GTPγS binding, Stimulation (% over basal), CP55,940 + UVI3502",CB1 receptor [5]; cerebellum (gray matter),-46 ± 31 % over basal
same,"[35S]GTPγS binding, Stimulation (% over basal)",CB1 receptor [5]; cerebellum (gray matter),-16 ± 51 % over basal
same,"[35S]GTPγS binding, Stimulation (% over basal), CP55,940 + UVI3502",CB1 receptor [5]; cortex,-60 ± 10 % over basal
same,"[35S]GTPγS binding, Stimulation (% over basal)",CB1 receptor [5]; cortex,-45 ± 24 % over basal
same,"[35S]GTPγS binding, Stimulation (% over basal), CP55,940 + UVI3502",CB1 receptor [5]; globus pallidus,89 ± 42 % over basal
same,"[35S]GTPγS binding, Stimulation (% over basal)",CB1 receptor [5]; globus pallidus,-3 ± 46 % over basal
same,"[35S]GTPγS binding, Stimulation (% over basal), CP55,940 + UVI3502",CB1 receptor [5]; hippocampus dorsal,-62 ± 6 % over basal
same,"[35S]GTPγS binding, Stimulation (% over basal)",CB1 receptor [5]; hippocampus dorsal,-40 ± 26 % over basal
same,"[35S]GTPγS binding, Stimulation (% over basal), CP55,940 + UVI3502",CB1 receptor [5]; [8],-40 ± 11 % over basal
same,"[35S]GTPγS binding, Stimulation (% over basal)",CB1 receptor [5]; [8],-35 ± 30 % over basal
same,"[35S]GTPγS binding, Stimulation (% over basal), CP55,940 + UVI3502",CB1 receptor [5]; striatum,-54 ± 23 % over basal
same,"[35S]GTPγS binding, Stimulation (% over basal)",CB1 receptor [5]; striatum,-34 ± 25 % over basal
same,"[35S]GTPγS binding, Stimulation (% over basal), CP55,940 + UVI3502",CB1 receptor [5]; substantia nigra,14 ± 80 % over basal
same,"[35S]GTPγS binding, Stimulation (% over basal)",CB1 receptor [5]; substantia nigra,-41 ± 24 % over basal
same,stimulation of [35S]GTPγS binding (coupling of CB1 to Gi/o proteins),human CB1 receptor [6],does not; also recorded: did not stimulate the coupling of CB1 receptors to Gi/o proteins
